Converted amounts (≈) assume the structure as drawn. Like-named read-outs stand apart in the source and are kept apart here.
How the values were obtained:
Proteus vulgaris 1017 = assay: MIC plate test; assay type: cell-based; details: nutrient medium, 37°C, 24 hours
Source text: (§1) The antimicrobial activity of these compounds can be conveniently observe in in vitro and in vivo models. For example, their minimum inhibitory concentration (MIC) can be determined in the plate test on a complete nutrient base of the following composition: 10 g of proteose-peptone, 10 g of veal infusion, 2 g of dextrose, 3 g of sodium chloride, 2 g of disodium phosphate, 1 g of sodium acetate, 0.01 g of adenine sulfate, 0.01 g of guanine hydrochloride, 0.01 g of uracil, 0.01 g of xantine, 12 g of agar-agar and 1 liter of water. With an incubation temperature of 37°C and an incubation time of 24 hours, the following typical values can be observed: […]

[1] = test system: Pseudomonas aeruginosa BONN; assay: MIC plate test; assay type: cell-based; details: nutrient medium, 37°C, 24 hours
Source text: as §1

Klebsiella 8085 = assay: MIC plate test; assay type: cell-based; details: nutrient medium, 37°C, 24 hours
Source text: as §1

Klebsiella 63 = assay: MIC plate test; assay type: cell-based; details: nutrient medium, 37°C, 24 hours
Source text: as §1

[2] = test system: Staphylococcus aureus 133; assay: MIC plate test; assay type: cell-based; details: nutrient medium, 37°C, 24 hours
Source text: as §1

Streptococcus pyogenes W = assay: MIC plate test; assay type: cell-based; details: nutrient medium, 37°C, 24 hours
Source text: as §1

Pseudomonas aeruginosa W = assay: MIC plate test; assay type: cell-based; details: nutrient medium, 37°C, 24 hours
Source text: as §1

[3] = test system: Staphylococcus aureus 133; assay: in vivo infection of white mice, subcutaneous administration; details: 15 minutes before intraperitoneal infection, 24 hours later
Source text: (§2) The above in vitro data are confirmed in in vivo infections.

E. coli A 261 = assay: MIC plate test; assay type: cell-based, Escherichia coli; details: 37°C, 24 hours
Source text: as §1

E. coli C 165 = assay: MIC plate test; assay type: cell-based, Escherichia coli; details: 37°C, 24 hours
Source text: as §1

E.coli C 165 = assay: in vivo infection of white mice, subcutaneous administration; details: 15 minutes before intraperitoneal infection, 24 hours later
Source text: as §2

[4] = growth promoting activity and fodder utilisation in chicken; assay type: in vivo; details: 10 PPM in fodder
Description: The growth promoting activity of the new compounds and their effectiveness in improving the fodder utilisation may be illustrated by the following data:
Test animals : chicken (kept in cages, with complete fodder and water ad libitum)
The active ingredient is mixed in a finely divided form to the fodder according to customary methods. The tests were performed with 12 animals in each tested group.
Active ingredient: compound of Example 4
Concentration of the active ingredient in the fodder: […]

Molecule “isomeric mixture of 6-chloro- and 7-chloro-3-amino-1,2,4-benzotriazine-1,4-di-N-oxide [Compound B]” has an MIC (Proteus vulgaris 1017) of 4 µg/mL, an MIC [1] of 128 µg/mL and an MIC (Klebsiella 8085) of 1 µg/mL. The MIC (Klebsiella 63) was 8 µg/mL, the MIC [2] was 8 µg/mL and the MIC (Streptococcus pyogenes W) was 8 µg/mL. For the same molecule, the MIC (Pseudomonas aeruginosa W) was 128 µg/mL, the ED50 [3] was 250 mg/kg and the MIC (E. coli A 261; nutrient medium) was 8 µg/mL. The MIC (E. coli C 165; nutrient medium) was 8 µg/mL.

Nc1n[n+]([O-])c2ccccc2[n+]1[O-] [Compound A, 3-amino-1,2,4-benzotriazine-1,4-di-N-oxide] showed an MIC (Proteus vulgaris 1017; read-out: MIC) of 2 µg/mL (≈ 11.2 µM), an MIC ([1]; read-out: MIC) of 8 µg/mL (≈ 44.9 µM) and an MIC (Klebsiella 8085; read-out: MIC) of 2 µg/mL (≈ 11.2 µM). For the same molecule, the MIC (Klebsiella 63; read-out: MIC) was 4 µg/mL (≈ 22.5 µM), the MIC ([2]; read-out: MIC) was 16 µg/mL (≈ 89.8 µM) and the MIC (Streptococcus pyogenes W; read-out: MIC) was 32 µg/mL (≈ 180 µM). The MIC (Pseudomonas aeruginosa W; read-out: MIC) was 64 µg/mL (≈ 359 µM), the ED50 (E.coli C 165; Escherichia coli, C165, sc, read-out: ED50) was 20 mg/kg and the MIC (E. coli A 261; Escherichia coli, A261, nutrient medium, read-out: MIC) was 4 µg/mL (≈ 22.5 µM). It also gave an MIC (E. coli C 165; Escherichia coli, C165, nutrient medium, read-out: MIC) of 4 µg/mL (≈ 22.5 µM).

“isomeric mixture of 6-methoxy and 7-methoxy-3-amino-1,2,4-benzotriazine-1,4-di-N-oxide [Compound C]” gave an MIC (Proteus vulgaris 1017) of 1 µg/mL, an MIC [1] of 32 µg/mL and an MIC (Klebsiella 8085) of 1 µg/mL. For the same molecule, the MIC (Klebsiella 63) was 2 µg/mL, the MIC [2] was 4 µg/mL and the MIC (Streptococcus pyogenes W) was 4 µg/mL. For the same molecule, the MIC (Pseudomonas aeruginosa W) was 64 µg/mL, the ED50 [3] was 40 mg/kg and the ED50 (E.coli C 165) was 25 mg/kg. The “Consumption of fodder in relation to the control group” value (from here on “Consumption of fodder in relation”) ([4]; week 0) was 100%, the “Weight increase in relation to the control group” value (“Weight increase in relation” below) ([4]; week 0) was 100% and the “weight increase (all animals)” value ([4]; week 0) was 75 gram. For the same molecule, the “Consumption of fodder in relation” value ([4]; week 1) was 85.7%, the “Weight increase in relation” value ([4]; week 1) was 102.8% and the “weight increase (all animals)” value ([4]; week 1) was 148.4 gram. The “Consumption of fodder in relation” value ([4]; week 2) was 90.4%, the “Weight increase in relation” value ([4]; week 2) was 109.0% and the “weight increase (all animals)” value ([4]; week 2) was 276.7 gram. The “Consumption of fodder in relation” value ([4]; week 3) was 93.4%, the “Weight increase in relation” value ([4]; week 3) was 105.8% and the “weight increase (all animals)” value ([4]; week 3) was 475.0 gram. The “Consumption of fodder in relation” value ([4]; week 4) was 98.5%, the “Weight increase in relation” value ([4]; week 4) was 110.4% and the “weight increase (all animals)” value ([4]; week 4) was 761.8 gram. The “Consumption of fodder in relation” value ([4]; week 5) was 101.1%, the “Weight increase in relation” value ([4]; week 5) was 106.4% and the “weight increase (all animals)” value ([4]; week 5) was 1019.1 gram. For the same molecule, the “Consumption of fodder in relation” value ([4]; week 6) was 92.2%, the “Weight increase in relation” value ([4]; week 6) was 106.0% and the “weight increase (all animals)” value ([4]; week 6) was 1296.4 gram. For the same molecule, the MIC (E. coli A 261; nutrient medium) was 2 µg/mL and the MIC (E. coli C 165; nutrient medium) was 2 µg/mL.

Reference: patent US3980779A, “3-Amino-1,2,4-benzotriazine-1,4-di-N-oxide compositions and method of using same” (Bayer Aktiengesellschaft, priority 1972, dated 1976)
